Structures can show the parent of a compound that is named as a salt.

The test deals with CD4+ CCR4+ T cells. The experiment in a line: Chemokine stimulated increases in cellular F-actin content. The conditions noted are these: Homo sapiens, T-cell, 0.5 h; PBMC from normal volunteers; antagonist 30 min at 37° C. before agonist for 15 sec; F-actin content by flow cytometry; read-out: pA2 (converted). The class given is cell-based. The method, then:
Chemokine Stimulated Increases in Cellular F-Actin Content
Blood was taken from normal volunteers who had taken no medication within the previous ten days and mixed with 1/9 of the volume of 3.8% tri-sodium citrate solution. Chemokine-induced increases in the F-actin content of CD4+ CCR4+ T cells were measured by a modification of the method of Pilette et al. (Eur. Respir. J; 23: 876-884, 2004). Peripheral blood mononuclear cells (PBMC) were isolated by dextran sedimentation followed by Percoll density gradient centrifugation. The PBMCs were incubated with FITC-conjugated anti-human CD4 and PE-conjugated anti-CCR4 antibodies or appropriate isotype controls for 15 min. The cell suspensions were then centrifuged at 400 g for 10 min and the pellets resuspended in assay buffer (phenol red-free RPMI 1640 medium containing 10 mM HEPES and 0.1% bovine serum albumin) at 10^7/mL. The resulting cell suspension was incubated with antagonist or vehicle (0.1% DMSO) for 30 min at 37° C. before stimulation with the agonist for 15 sec. The assay was terminated by addition of 3% formaldehyde. The fixed cells were washed twice with PBS (centrifuging at 1000 g for 5 min to recover the cells) and incubated at room temperature with Alexa fluor-647 phalloidin (0.075 U/mL) in the presence of lyso-phosphatidylcholine (93.75 μg/ml) for 20 min to stain F-actin. The cells were washed once more with PBS and the relative F-actin content of the cells was measured flow cytometrically. The mean fluorescence intensity of 1000 CD4^+ CCR4^+ cells per sample was determined and expressed as a fraction of the mean intensity of the CD4^+ CCR4^− cells in that sample.
For `CNCC(=O)NCc1cccc(Cn2nc(NS(=O)(=O)c3ccc(Cl)s3)c3c(OC)cccc32)c1` [Example 12, N^1-[(3-{[3-{[(5-chloro-2-thienyl)sulfonyl]amino}-4-(methyloxy)-1H-indazol-1-yl]methyl}phenyl)methyl]-N^2-methylglycinamide hydrochloride], the Kb was not above 126 nM.

With `COCCN(C)CC(=O)NCc1cccc(Cn2nc(NS(=O)(=O)c3ccc(Cl)s3)c3c(OC)cccc32)c1` [Example 36, N^1-[(3-{[3-{[(5-Chloro-2-thienyl)sulfonyl]amino}-4-(methyloxy)-1H-indazol-1-yl]methyl}phenyl)methyl]-N^2-methyl-N^2-[2-(methyloxy)ethyl]glycinamide trifluoroacetate], the Kb was not above 126 nM.

In the case of `COc1cccc2c1c(NS(=O)(=O)c1ccc(Cl)s1)nn2Cc1cccc(CNC(=O)[C@@H]2CCCN2)c1` [Example 158, N-[(3-{[3-{[(5-Chloro-2-thienyl)sulfonyl]amino}-4-(methyloxy)-1H-indazol-1-yl]methyl}phenyl)methyl]-L-prolinamide trifluoroacetate], the Kb was not above 126 nM.

In the case of `COc1cccc2c1c(NS(=O)(=O)c1ccc(Cl)s1)nn2Cc1cccc(CNC(=O)C2COCCN2C)c1` (stereo not shown) [Example 96, N-[(3-{[3-{[(5-Chloro-2-thienyl)sulfonyl]amino}-4-(methyloxy)-1H-indazol-1-yl]methyl}phenyl)methyl]-4-methyl-3-morpholinecarboxamide], the Kb is not above 126 nM.

On to `CNC(=O)[C@@H](N)CC(=O)NCc1cccc(Cn2nc(NS(=O)(=O)c3ccc(Cl)s3)c3c(OC)cccc32)c1` [Example 22, N^4-[(3-{[3-{[(5-chloro-2-thienyl)sulfonyl]amino}-4-(methyloxy)-1H-indazol-1-yl]methyl}phenyl)methyl]-N^1-methyl-L-aspartamide trifluoroacetate], for which the Kb is not above 126 nM.

As to `CNC1(C(=O)NCc2cccc(Cn3nc(NS(=O)(=O)c4ccc(Cl)s4)c4c(OC)cccc43)c2)CC1` [Example 15, N-[(3-{[3-{[(5-Chloro-2-thienyl)sulfonyl]amino}-4-(methyloxy)-1H-indazol-1-yl]methyl}phenyl)methyl]-1-(methylamino)cyclopropanecarboxamide hydrochloride], the Kb is not above 126 nM.

Regarding `O=C(NCc1cccc(Cn2nc(NS(=O)(=O)c3ccc(Cl)s3)c3c(O)cccc32)c1)[C@@H]1COCCN1` [Example 166, (3S)—N-({3-[(3-{[(5-Chloro-2-thienyl)sulfonyl]amino}-4-hydroxy-1H-indazol-1-yl)methyl]phenyl}methyl)-3-morpholinecarboxamide formate salt], the Kb was not above 126 nM.

Consider `CCNC(=O)NCc1cccc(Cn2nc(NS(=O)(=O)c3ccc(Cl)s3)c3c(OC)cccc32)c1` [Example 113, 5-Chloro-N-[1-{[3-({[(ethylamino)carbonyl]amino}methyl)phenyl]methyl}-4-(methyloxy)-1H-indazol-3-yl]-2-thiophenesulfonamide], for which the Kb is not above 126 nM.

On to `COc1cccc2c1c(NS(=O)(=O)c1ccc(Cl)s1)nn2Cc1cccc(CNC(=O)[C@@H](N)CCC(N)=O)c1` [Example 79, N^1-[(3-{[3-{[(5-Chloro-2-thienyl)sulfonyl]amino}-4-(methyloxy)-1H-indazol-1-yl]methyl}phenyl)methyl]-L-glutamamide formate salt], for which the Kb is not above 126 nM.

Regarding `COc1cc(F)cc2c1c(NS(=O)(=O)c1ccc(Cl)s1)nn2Cc1cccc(CNC(C)=O)c1` [Example 129, N-[(3-{[3-{[(5-Chloro-2-thienyl)sulfonyl]amino}-6-fluoro-4-(methyloxy)-1H-indazol-1-yl]methyl}phenyl)methyl]acetamide], the Kb was not above 126 nM.

As for `COc1cccc2c1c(NS(=O)(=O)c1ccc(Cl)s1)nn2Cc1cccc(CNS(C)(=O)=O)c1` [Example 58, 5-Chloro-N-{4-(methyloxy)-1-[(3-{[(methylsulfonyl)amino]methyl}phenyl)methyl]-1H-indazol-3-yl}-2-thiophenesulfonamide], the Kb is not above 126 nM.

For `CC[C@H](C)[C@@H](N)C(=O)NCc1cccc(Cn2nc(NS(=O)(=O)c3ccc(Cl)s3)c3c(OC)cccc32)c1` [Example 46, N^1-[(3-{[3-{[(5-Chloro-2-thienyl)sulfonyl]amino}-4-(methyloxy)-1H-indazol-1-yl]methyl}phenyl)methyl]-D-alloisoleucinamide], the Kb was not above 126 nM.

As to `COc1cccc2c1c(NS(=O)(=O)c1ccc(Cl)s1)nn2Cc1cccc(CNC(=O)C2CCCO2)c1` (stereo not shown) [Example 89, N-[(3-{[3-{[(5-Chloro-2-thienyl)sulfonyl]amino}-4-(methyloxy)-1H-indazol-1-yl]methyl}phenyl)methyl]tetrahydro-2-furancarboxamide], the Kb was not above 126 nM.

Consider `COc1cccc2c1c(NS(=O)(=O)c1ccc(Cl)s1)nn2Cc1cccc(CNC(=O)c2ccoc2)c1` [Example 41, N-[(3-{[3-{[(5-Chloro-2-thienyl)sulfonyl]amino}-4-(methyloxy)-1H-indazol-1-yl]methyl}phenyl)methyl]-3-furancarboxamide], for which the Kb is not above 126 nM.

Regarding `COc1cccc2c1c(NS(=O)(=O)c1ccc(Cl)s1)nn2Cc1cccc(CNC(=O)[C@@H]2CCN2)c1` [Example 159, (2S)—N-[(3-{[3-{[(5-Chloro-2-thienyl)sulfonyl]amino}-4-(methyloxy)-1H-indazol-1-yl]methyl}phenyl)methyl]-2-azetidinecarboxamide trifluoroacetate], the Kb is not above 126 nM.

Take `CNC(C)(C)C(=O)NCc1cccc(Cn2nc(NS(=O)(=O)c3ccc(Cl)s3)c3c(OC)cccc32)c1` [Example 56, N1-[(3-{[3-{[(5-Chloro-2-thienyl)sulfonyl]amino}-4-(methyloxy)-1H-indazol-1-yl]methyl}phenyl)methyl]-N2,2-dimethylalaninamide formate]: the Kb is not above 126 nM.

Turning to `COc1ccc(Cn2nc(NS(=O)(=O)c3ccc(C)s3)c3c(OC)cccc32)cc1OC` [Example 118, N-[1-{[3,4-Bis(methyloxy)phenyl]methyl}-4-(methyloxy)-1H-indazol-3-yl]-5-methyl-2-thiophenesulfonamide], the Kb is not above 126 nM.

With `COc1cccc2c1c(NS(=O)(=O)c1ccc(Cl)s1)nn2Cc1cccc(S(N)(=O)=O)c1` [Example 77, N-[1-{[3-(aminosulfonyl)phenyl]methyl}-4-(methyloxy)-1H-indazol-3-yl]-5-chloro-2-thiophenesulfonamide], the Kb is not above 126 nM.

As for `COc1cccc2c1c(NS(=O)(=O)c1ccc(Cl)s1)nn2Cc1cccc(CNC(=O)C2CCCCN2C)c1` (stereo not shown) [Example 42, N-[(3-{[3-{[(5-chloro-2-thienyl)sulfonyl]amino}-4-(methyloxy)-1H-indazol-1-yl]methyl}phenyl)methyl]-1-methyl-2-piperidinecarboxamide trifluoroacetate], the Kb is not above 126 nM.

`COc1cccc2c1c(NS(=O)(=O)c1ccc(Cl)s1)nn2Cc1cccc(CNC(N)=O)c1` [Example 59, N-[1-[(3-{[(Aminocarbonyl)amino]methyl}phenyl)methyl]-4-(methyloxy)-1H-indazol-3-yl]-5-chloro-2-thiophenesulfonamide]: the Kb was not above 126 nM.

Turning to `CNCC(=O)NCc1cccc(Cn2nc(NS(=O)(=O)c3ccc(Cl)s3)c3c(O)cccc32)c1` [Example 112, N^1-({3-[(3-{[(5-chloro-2-thienyl)sulfonyl]amino}-4-hydroxy-1H-indazol-1-yl)methyl]phenyl}methyl)-N^2-methylglycinamide formate salt], the Kb is not above 126 nM.

For `COc1cccc2c1c(NS(=O)(=O)c1ccc(Cl)s1)nn2Cc1cccc(CNC(=O)CN(C)C)c1` [Example 86, N^1-[(3-{[3-{[(5-Chloro-2-thienyl)sulfonyl]amino}-4-(methyloxy)-1H-indazol-1-yl]methyl}phenyl)methyl]-N^2,N^2-dimethylglycinamide trifluoroacetate], the Kb was not above 126 nM.

For `COc1cccc2c1c(NS(=O)(=O)c1ccc(Cl)s1)nn2Cc1cccc(CNC(=O)CN)c1` [Example 20, N^1-[(3-{[3-{[(5-chloro-2-thienyl)sulfonyl]amino}-4-(methyloxy)-1H-indazol-1-yl]methyl}phenyl)methyl]glycinamide trifluoroacetate], the Kb is not above 126 nM.

For `COc1cccc2c1c(NS(=O)(=O)c1ccc(Cl)s1)nn2Cc1cccc(CNC=O)c1` [Example 5, 5-Chloro-N-[1-({3-[(formylamino)methyl]phenyl}methyl)-4-(methyloxy)-1H-indazol-3-yl]-2-thiophenesulfonamide], the Kb is not above 126 nM.

`COc1cccc2c1c(NS(=O)(=O)c1ccc(Cl)s1)nn2Cc1cccc(CNC(=O)C(C)(C)CN)c1` [Example 11, 3-Amino-N-[(3-{[3-{[(5-chloro-2-thienyl)sulfonyl]amino}-4-(methyloxy)-1H-indazol-1-yl]methyl}phenyl)methyl]-2,2-dimethylpropanamide hydrochloride]: the Kb was not above 126 nM.

(Values after patent publication US8304446B2, “Compounds” (Glaxo Group Limited, priority 2009, dated 2012).)
